Measurements: patent US20030118627A1 (DABUR RESEARCH FOUNDATION, priority 2001, published 2003)

Tests used:
KB = assay: MTT cytotoxicity assay, KB oral; type: cell-based; details: Homo sapiens, 24 h, read-out: ED50 values of cytotoxicity
Description: (§1) Briefly, a […] MTT cytotoxicity assay was performed, which is based on the principle of uptake of MTT (3-(4,5-dimethylthiazol-2-yl)-2,5-diphenyl tetrazolium bromide), a tetrazolium salt, by the metabolically active cells where it is metabolized by active mitochondria into a blue colored formazan product that is read spectrophoto-metrically. MTT was dissolved in phosphate buffered saline with a pH of 7.4 to obtain an MTT concentration of 5 mg/ml; the resulting mixture was filtered through a 0.22 micron filter to sterilize and remove a small amount of insoluble residue. For each type of tumor cell, 20,000 to 50,000 cells were seeded in a 96-well culture plate and incubated with the combination in a CO2 incubator for 24 hours. […] The assay was terminated after 24 hours by adding 100 ug (20 ul) of MTT to each well, then incubating for additional one hour, and finally adding 50 ul of 10% SDS-0.01N HCl to each well to lyse the cells and dissolve formazan. After incubating for one hour, the plate was read spectrophotometrically at 540 nm and the percentage cytotoxicity calculated.

DU145 = assay: MTT cytotoxicity assay, DU145 prostate; type: cell-based; details: Homo sapiens
Description: as §1

293 = assay: MTT cytotoxicity assay, 293 kidney; type: cell-based; details: Homo sapiens, HEK293, 24 h, read-out: ED50 values of cytotoxicity
Description: as §1

PTC = assay: MTT cytotoxicity assay, PTC colon; type: cell-based; details: Homo sapiens
Description: as §1

Hep2 = assay: MTT cytotoxicity assay, Hep2 larynx; type: cell-based; details: Homo sapiens, HEp-2, 24 h, read-out: ED50 values of cytotoxicity
Description: as §1

MCF7 = assay: MTT cytotoxicity assay, MCF7 breast; type: cell-based; details: Homo sapiens
Description: as §1

Swiss albino mice = details: both, mouse, in vivo, po, 15 days
Description: Acute toxicity studies were performed using the oral route of administration.
A batch of 5 female and 5 male mice each was administered the test substance by oral route. […] Another batch of 5 female and 5 male served as control.
Observations were made three times on the day of dosing and twice daily thereafter for the remainder of 14 days or until reversible toxic signs or symptoms subsided. All gross visible toxic signs and symptoms were recorded. Body weights were recorded prior to dosing and weekly thereafter.

L132 = assay: MTT cytotoxicity assay, L132 lung; type: cell-based; details: Homo sapiens
Description: as §1

MOLT 4 = assay: MTT cytotoxicity assay, MOLT 4 leukemia; type: cell-based; details: Homo sapiens
Description: as §1

Miapaca2 = assay: MTT cytotoxicity assay, Miapaca2 pancreas; type: cell-based; details: Homo sapiens
Description: as §1

INT 407 = assay: MTT cytotoxicity assay, INT 407 intestine; type: cell-based; details: Homo sapiens, 24 h, read-out: ED50 values of cytotoxicity
Description: as §1

PA 1 = assay: MTT cytotoxicity assay, PA 1 ovary; type: cell-based; details: Homo sapiens
Description: as §1

U87MG = assay: MTT cytotoxicity assay, U87MG glioblastoma; type: cell-based; details: Homo sapiens, U-87 MG, 24 h, read-out: ED50 values of cytotoxicity
Description: as §1

[1] = 1.0 mM, read-out: Percent cytotoxicity
[2] = 2.5 mM, read-out: Percent cytotoxicity
[3] = 4 mM, read-out: Percent cytotoxicity
[4] = 5 mM, read-out: Percent cytotoxicity
[5] = 10 mM, read-out: Percent cytotoxicity
[6] = 24 h, read-out: ED50 values of cytotoxicity

For `CCCCOC(=O)C1CCC(=O)N1C(O)C(C)=O` (centres unmarked) [MGC-2, N-(1-hydroxy-2-ketopropyl)-butylpyroglutamate], the IC50 (KB) was 2.6 ± 0.5 mM, the cytotoxicity at 1000 µM (DU145; DU-145, 1.0 mM, read-out: Percent cytotoxicity) was 43.9% and the cytotoxicity at 2500 µM (DU145; DU-145, 2.5 mM, read-out: Percent cytotoxicity) was 53.9 ± 3.8%. It also gave a cytotoxicity at 4000 µM (DU145; DU-145, 4 mM, read-out: Percent cytotoxicity) of 58.9 ± 4.3%, a cytotoxicity at 5000 µM (DU145; DU-145, 5 mM, read-out: Percent cytotoxicity) of 67.9 ± 5.2% and a cytotoxicity at 10000 µM (DU145; DU-145, 10 mM, read-out: Percent cytotoxicity) of 86.9 ± 6.9%. It also gave an IC50 (DU145; DU-145, 24 h, read-out: ED50 values of cytotoxicity) of 1.6 ± 0.1 mM, an IC50 293 of 2 ± 0.8 mM and a cytotoxicity at 1000 µM (PTC; [1]) of 45.8%. The cytotoxicity at 2500 µM (PTC; [2]) was 68.9 ± 5.3%, the cytotoxicity at 4000 µM (PTC; [3]) was 85.9 ± 6.2% and the cytotoxicity at 5000 µM (PTC; [4]) was 88.8 ± 5.3%. For the same compound, the cytotoxicity at 10000 µM (PTC; [5]) was 86.9 ± 5%, the IC50 (PTC; [6]) was 1.6 ± 0.1 mM and the IC50 (Hep2) was 2 ± 0.3 mM. It also gave an IC50 (MCF7; MCF7, 24 h, MCF 7 Breast, read-out: ED50 values of cytotoxicity) of 2.5 ± 0.4 mM, a cytotoxicity at 1000 µM (MCF7; MCF7 breast, 1.0 mM, read-out: Percent cytotoxicity) of 34.7% and a cytotoxicity at 2500 µM (MCF7; MCF7 breast, 2.5 mM, read-out: Percent cytotoxicity) of 50.6 ± 4.1%. It also gave a cytotoxicity at 4000 µM (MCF7; MCF7 breast, 4 mM, read-out: Percent cytotoxicity) of 57.9 ± 4.8%, a cytotoxicity at 5000 µM (MCF7; MCF7 breast, 5 mM, read-out: Percent cytotoxicity) of 67.9 ± 4% and a cytotoxicity at 10000 µM (MCF7; MCF7 breast, 10 mM, read-out: Percent cytotoxicity) of 78.9 ± 5.2%. The safe dose (Swiss albino mice) was 75 mg, the cytotoxicity at 1000 µM (L132; [1]) was 34.8% and the cytotoxicity at 2500 µM (L132; [2]) was 58.5 ± 3.6%. For the same compound, the cytotoxicity at 4000 µM (L132; [3]) was 62.9 ± 2.9%, the cytotoxicity at 5000 µM (L132; [4]) was 87.8 ± 5.8% and the cytotoxicity at 10000 µM (L132; [5]) was 88.6 ± 3%. The IC50 (L132; [6]) was 1.9 ± 0.8 mM, the IC50 (MOLT 4; 24 h, Molt 4 Leukemia, read-out: ED50 values of cytotoxicity) was < 1 mM and the cytotoxicity at 1000 µM (MOLT 4; MOLT 4 Leukemia, 1.0 mM, read-out: Percent cytotoxicity) was 75.9%. It also gave a cytotoxicity at 2500 µM (MOLT 4; MOLT 4 Leukemia, 2.5 mM, read-out: Percent cytotoxicity) of 85.9 ± 6.3%, a cytotoxicity at 4000 µM (MOLT 4; MOLT 4 Leukemia, 4 mM, read-out: Percent cytotoxicity) of 87.8 ± 5% and a cytotoxicity at 5000 µM (MOLT 4; MOLT 4 Leukemia, 5 mM, read-out: Percent cytotoxicity) of 88.2 ± 5.9%. The cytotoxicity at 10000 µM (MOLT 4; MOLT 4 Leukemia, 10 mM, read-out: Percent cytotoxicity) was 90.2 ± 7.2%, the cytotoxicity at 1000 µM (Miapaca2; MIA PaCa-2, 1.0 mM, read-out: Percent cytotoxicity) was 34.8% and the cytotoxicity at 2500 µM (Miapaca2; MIA PaCa-2, 2.5 mM, read-out: Percent cytotoxicity) was 64.9 ± 5.9%. For the same compound, the cytotoxicity at 4000 µM (Miapaca2; MIA PaCa-2, 4 mM, read-out: Percent cytotoxicity) was 74.9 ± 3.8%, the cytotoxicity at 5000 µM (Miapaca2; MIA PaCa-2, 5 mM, read-out: Percent cytotoxicity) was 76.9 ± 4% and the cytotoxicity at 10000 µM (Miapaca2; MIA PaCa-2, 10 mM, read-out: Percent cytotoxicity) was 84.9 ± 6.3%. It also gave an IC50 (Miapaca2; MIA PaCa-2, 24 h, read-out: ED50 values of cytotoxicity) of 1.7 ± 0.6 mM, an IC50 (INT 407) of 2.7 ± 0.8 mM and an IC50 (PA 1; 24 h, PA 1 Ovarian, read-out: ED50 values of cytotoxicity) of 1.2 ± 0.2 mM. The cytotoxicity at 2500 µM (PA 1; PA 1 Ovary, 2.5 mM, read-out: Percent cytotoxicity) was 57.9 ± 4.5%, the cytotoxicity at 4000 µM (PA 1; PA 1 Ovary, 4 mM, read-out: Percent cytotoxicity) was 67.9 ± 5.4% and the cytotoxicity at 5000 µM (PA 1; PA 1 Ovary, 5 mM, read-out: Percent cytotoxicity) was 84.9 ± 4.8%. The cytotoxicity at 10000 µM (PA 1; PA 1 Ovary, 10 mM, read-out: Percent cytotoxicity) was 87.9 ± 6.3% and the IC50 (U87MG) was 3.15 ± 1.1 mM.
